Assay results: publication PMC4784888, “Activity Based High-Throughput Screening for Novel O-GlcNAc Transferase Substrates Using a Dynamic Peptide Microarray” (PLoS ONE, 2016)

Columns and labels:
Format in all cases: biochemical, human
s-OGT [1] = experiment: O-GlcNAcylation on kinase substrate peptide microarray, s-OGT; details: bacterial lysate containing s-OGT (7 μg/μL), 1 mM UDP-GlcNAc, 50 mM Tris-HCl pH 7.5, 30°C, FITC antibody fluorescence, corrected for signal without UDP-GlcNAc
Protocol: (§1) Plasmids encoding s-OGT, m-OGT, and nc-OGT are generous gifts from John A. Hanover (National Institute of Health, USA). OGT overexpression was carried out as previously described. All the plasmids were transformed into E.coli BL21 (DE3) competent cells to produce a cell lysate containing OGT for use or for further purification. Briefly, inoculated a single colony into 50 ml of LB broth media containing 50 μg/ml ampicillin and cells were grown overnight at 37°C with vigorous shaking. 50 mL of the start culture was added into 1L LB broth media containing 50 μg/mL ampicillin and it was incubated with shaking at 200 rpm at 37°C until A600 reached 0.4–0.6. After the culture was cooled to room temperature, 0.5 mM IPTG was added into the culture to induce protein expression. After 16 hours, the cells were collected by centrifugation for 10 min at 4000 RPM at 4°C. The pellets were lysed in lysis buffer containing 20 mM Tris-HCl, pH 7.5, 1 mg/mL lysome, 0.1% triton x-100 and complete mini EDTA-free protease inhibitor cocktail on ice for 10 min and the lysate was sonicated until the DNA was completely sheared. After centrifugation for 10 min at 12000 rpm at 4°C, the supernatant was carefully transferred into a clean tube and was ready for the array assay or for further purification. Protein expression was determined by coomassie blue staining and western blotting using an anti-OGT antibody.
(§2) Peptide O-GlcNAcylation was assessed using PamChip 4 microarray chips with a PamStation 12 instrument (Pamgene international, The Netherlands). The OGT enzyme reaction was prepared essentially as described[26] with minor modifications. Briefly, before addition of the enzyme reaction, the microarray was blocked with blocking buffer (1% BSA in TBS). After 30 cycles (2 cycles/min) blocking, the blocking buffer was aspirated and the microarray was incubated with 40 μL of the enzyme reaction containing OGT (lysate or purified), OGT reaction buffer (50 mM Tris—HCl, pH 7.5;1 mM DTT;12.5 mM MgCl2), a 1:1 pre-incubated mixture of anti-O-GlcNAc and FITC conjugated secondary antibody, and the sugar donor UDP-GlcNAc or water as a control for 480 cycles (2 cycles/min) at 30°C. The microarray was run in parallel by pumping the reaction up and down through the porous membrane at every cycle and a tiff image was obtained at every 20 cycles by a CCD camera inside the PamStation. O-GlcNAcylation of each peptide was detected by a fluorescent signal which was produced by an FITC conjugated antibody bound to the O-GlcNAc moiety on the peptide.
(§3) Image analysis was performed using BioNavigator 6 software (Pamgene international, The Netherlands). Briefly, each image was quantified by automated array grid finding and subsequent quantification of signal and local background for each individual spot. In this work, the signal median-minus-background value was used as the quantitative parameter for the O-GlcNAcylation of the peptide.
(§4) Dynamic peptide microarray (PamChip) technology has been successfully and widely used for kinase activities profiling in the last decade. In the present work, we describe, for the first time, the utility of this peptide microarray format for the identification of human OGT activity. Due to the fact that O-GlcNAcylation and phosphorylation may occur at the same or proximal amino acids on the same protein [9], a peptide microarray of 144 peptides derived from different kinase substrates (S1 Appendix) was selected for an initial test. […] O-GlcNAcylation of peptides in each individual spot was detected by a fluorescent signal produced by the FITC labelled antibody recognizing the O-GlcNAcylated amino acids of converted peptides. Kinetic activity was measured through scanning the signal at regular intervals.
(§5) Fig 2 Identification of human OGT substrates from a kinase substrate and nuclear hormone receptor interaction peptide microarray. […]

nc-OGT [2] = experiment: O-GlcNAcylation on kinase substrate peptide microarray, nc-OGT; details: bacterial lysate containing nc-OGT (7 μg/μL), 1 mM UDP-GlcNAc, 50 mM Tris-HCl pH 7.5, 30°C, FITC antibody fluorescence, corrected for signal without UDP-GlcNAc
Protocol: as §1, §2, §3, §4, §5

m-OGT [3] = experiment: O-GlcNAcylation on kinase substrate peptide microarray, m-OGT; details: bacterial lysate containing m-OGT (7 μg/μL), 1 mM UDP-GlcNAc, 50 mM Tris-HCl pH 7.5, 30°C, FITC antibody fluorescence, corrected for signal without UDP-GlcNAc
Protocol: as §1, §2, §3, §4, §5

s-OGT [4] = experiment: O-GlcNAcylation on nuclear hormone receptor interaction peptide microarray, s-OGT; details: bacterial lysate containing s-OGT (7 μg/μL), 1 mM UDP-GlcNAc, 50 mM Tris-HCl pH 7.5, 30°C, FITC antibody fluorescence, corrected for signal without UDP-GlcNAc
Protocol: as §1, §2, §3, §4, §5

m-OGT [5] = experiment: O-GlcNAcylation on nuclear hormone receptor interaction peptide microarray, m-OGT; details: bacterial lysate containing m-OGT (7 μg/μL), 1 mM UDP-GlcNAc, 50 mM Tris-HCl pH 7.5, 30°C, FITC antibody fluorescence, corrected for signal without UDP-GlcNAc
Protocol: as §1, §2, §3, §4, §5

nc-OGT [6] = experiment: O-GlcNAcylation on nuclear hormone receptor interaction peptide microarray, nc-OGT; details: bacterial lysate containing nc-OGT (7 μg/μL), 1 mM UDP-GlcNAc, 50 mM Tris-HCl pH 7.5, 30°C, FITC antibody fluorescence, corrected for signal without UDP-GlcNAc
Protocol: as §1, §2, §3, §4, §5

[7] = system: OGT (s-OGT, m-OGT, nc-OGT); experiment: O-GlcNAcylation on nuclear hormone receptor interaction peptide microarray, three isoforms taken together; details: for O-GlcNAcylation by three isoforms: nuclear hormone receptor interaction microarray, bacterial lysates s-, m-, nc-OGT, 1 mM UDP-GlcNAc; for identification in microarray assay: nuclear receptor interaction peptide microarray
Protocol: as §1, §2, §3
Dynamic peptide microarray (PamChip) technology has been successfully and widely used for kinase activities profiling in the last decade. In the present work, we describe, for the first time, the utility of this peptide microarray format for the identification of human OGT activity. […] O-GlcNAcylation of peptides in each individual spot was detected by a fluorescent signal produced by the FITC labelled antibody recognizing the O-GlcNAcylated amino acids of converted peptides. Kinetic activity was measured through scanning the signal at regular intervals. […]

Row | Sequence | OGT isoforms activity, s (s-OGT [1]) | OGT isoforms activity, nc (nc-OGT [2]) | OGT isoforms activity, m (m-OGT [3]) | OGT isoforms activity, s (s-OGT [4]) | OGT isoforms activity, m (m-OGT [5]) | OGT isoforms activity, nc (nc-OGT [6]) | O-GlcNAcylation by three isoforms [7] | identification in microarray assay [7]
1 | DNTPHTPTPFKNA [MYBB_513_525, kinase substrate microarray peptide …] | P (Signal greater than 5% of the highest signal was defined as positive (P)) | N (otherwise negative (N)) | N (otherwise negative (N)) | – | – | – | – | –
2 | DSVRKGKQDSTLLASLLQSFSSR [NRIP1_121_143_P124R] | – | – | – | N (otherwise negative) | P (Signal greater than 5% of the highest signal was defined as positive) | N (otherwise negative) | – | –
3 | EGLRSRSTRMSTVS [KIF2C_105_118_S106G, kinase substrate microarray peptide …] | N (otherwise negative (N)) | N (otherwise negative (N)) | P (Signal greater than 5% of the highest signal was defined as positive (P)) | – | – | – | – | –
4 | ERSKTVTSFYNQS [BCKD_45_57, kinase substrate microarray peptide …] | N (otherwise negative (N)) | P (Signal greater than 5% of the highest signal was defined as positive (P)) | N (otherwise negative (N)) | – | – | – | – | –
5 | GLGRSITSPTTLY [RBL-2_655_667, kinase substrate microarray peptide …] | P (Signal greater than 5% of the highest signal was defined as positive (P)) | P (Signal greater than 5% of the highest signal was defined as positive (P)) | P (Signal greater than 5% of the highest signal was defined as positive (P)) | – | – | – | – | –
6 | GQRNISTLSTIQKLPRLLVASSS [WIPI1_313_335_C318S] | – | – | – | P (Signal greater than 5% of the highest signal was defined as positive) | P (Signal greater than 5% of the highest signal was defined as positive) | P (Signal greater than 5% of the highest signal was defined as positive) | O-GlcNAcylation by three isoforms was observed | –
7 | GSDVHQDSIVLTYLEGLLMHQAA [NRIP1_8_30] | – | – | – | N (otherwise negative) | P (Signal greater than 5% of the highest signal was defined as positive) | N (otherwise negative) | – | –
8 | GTGGLSAVSSGPRLRLLLLESVS [PELP1_20_42] | – | – | – | – | – | – | – | not identified in our microarray assay
9 | HGEDFSKVSQNPILTSLLQITGNG [MED1_591_614] | – | – | – | N (otherwise negative) | N (otherwise negative) | P (Signal greater than 5% of the highest signal was defined as positive) | – | –
10 | HGSQNRPLLRNSLDDLLGPPSNA [NCOA3_MOUSE_1029_1051] | – | – | – | N (otherwise negative) | N (otherwise negative) | P (Signal greater than 5% of the highest signal was defined as positive) | – | –
11 | KWTKRTLSETSSS [KCNB1_489_501, kinase substrate microarray peptide …] | N (otherwise negative (N)) | P (Signal greater than 5% of the highest signal was defined as positive (P)) | N (otherwise negative (N)) | – | – | – | – | –
12 | LVSPAMREAPTSLSQLLDNSGAP [NCOA6_1479_1501] | – | – | – | P (Signal greater than 5% of the highest signal was defined as positive) | P (Signal greater than 5% of the highest signal was defined as positive) | P (Signal greater than 5% of the highest signal was defined as positive) | O-GlcNAcylation by three isoforms was observed | –
13 | PATSPKPSVASSQLALLLSSEAH [NRIP1_253_275_C263S] | – | – | – | N (otherwise negative) | P (Signal greater than 5% of the highest signal was defined as positive) | P (Signal greater than 5% of the highest signal was defined as positive) | – | –
14 | QFPLPKNLLAKVIQIATSSSTA [DHX30_241_262] | – | – | – | N (otherwise negative) | P (Signal greater than 5% of the highest signal was defined as positive) | N (otherwise negative) | – | –
15 | QVEFRRLSISAES [KPB1_1011_1023, kinase substrate microarray peptide …] | P (Signal greater than 5% of the highest signal was defined as positive (P)) | N (otherwise negative (N)) | N (otherwise negative (N)) | – | – | – | – | –
16 | SDGDSKYSQTSHKLVQLLTTTAEQ [NCOA1_620_643] | – | – | – | – | – | – | – | not identified in our microarray assay
17 | SDTLPEVSAIPISLDGLLFPRPS [PRGR_42_64_C64S] | – | – | – | P (Signal greater than 5% of the highest signal was defined as positive) | P (Signal greater than 5% of the highest signal was defined as positive) | N (otherwise negative) | – | –
18 | SPSQGAASRPAILYALLSSSLKA [NR0B2_9_31_C9S/C11S] | – | – | – | N (otherwise negative) | P (Signal greater than 5% of the highest signal was defined as positive) | N (otherwise negative) | – | –
19 | SQSTFNNPRPGQLGRLLPNQNLP [NCOA2_866_888] | – | – | – | N (otherwise negative) | P (Signal greater than 5% of the highest signal was defined as positive) | N (otherwise negative) | – | –
20 | TTSPTAATTQNPVLSKLLMADQD [LCOR_40_62] | – | – | – | N (otherwise negative) | P (Signal greater than 5% of the highest signal was defined as positive) | N (otherwise negative) | – | –
21 | TVAASPAASGAPTLSRLLEAGPT [BRD8_254_276] | – | – | – | P (Signal greater than 5% of the highest signal was defined as positive) | P (Signal greater than 5% of the highest signal was defined as positive) | P (Signal greater than 5% of the highest signal was defined as positive) | O-GlcNAcylation by three isoforms was observed | –
